# Test results from patent publication US10213449B2, “Compositions and methods for treating medulloblastoma” (The Board of Trustees of the Leland Stanford Junior …, priority 2016, dated 2019).
# Entries after “also recorded” stand apart in the source; their conditions may differ.
# What was measured:
# [1] = test system: GNP proliferation / cerebellum; assay: CK2 inhibition in developing mouse (cerebellar development); type: in vivo; conditions: mice injected with TBB between P3-P7 (30 mg/kg IP bid)
# Procedure: The role of CK2 in cerebellar development was next investigated by injecting mice with the CK2 inhibitor TBB between P3-P7 (FIG. 2e).
# Math1/nGFPtransgenic mice^8 were treated with DMSO or TBB (30 mg/kg IP bid) (EMD 218697) from […] then sacrificed 6 h following their final treatment. Brains were dissected, fixed in 4% PFA overnight then transferred into 20% sucrose for 24 h. Sections were mounted in O.C.T and sectioned at 20 μm then air-dried for 20 min prior to storing at −20° C. for up to 2 months. Sections were blocked in 0.2% triton X-100 and 2% goat serum diluted in sterile PBS for 1 h at RT. Primary antibodies used were: anti-NeuN Ab (1:200, COT: 2459079, EMD Millipore), anti-Tag1 Ab (1:100, antibody derived in the Scott lab) and TUNEL staining as per manufacturers instructions (Roche In situ Cell Death Detection Kit, cat. no. 1 684 809). All sections were incubated in primary antibody overnight at 4° C. and counter-stained with Hoechst33258 (final concentration 1 μl/ml in PBS) at RT for 10 min. Images were taken on a Leica TCS SP8 confocal microscope. Images were randomized and all measurements (length, width, Atoh-1, Tag1, TUNNEL staining) were performed by a blinded collaborator. Cerebellar folia length was compared between matched sections of control and treated mice by measuring the maximal length from the mid-base to the tip of the culmun (lobule 4/5). Culmen width was measured […] from the base of the folia between lobules 5 and 6. Prism statistical analysis software was used (GraphPad Software, CA) to calculate significance as determined by two-tailed T-tests.
# [2] = test system: Hh signaling in Sufu−/− mouse embryonic fibroblasts; assay: RT-qPCR of Gli1 in Sufu−/− MEFs (epistasis study); type: cell-based
# Text: (§1) Epistasis studies were next performed to determine where in the hedgehog pathway CK2 acts. The effect of TBB was examined: (i) in NIH 3T3s stimulated with SAG, a SMO agonist, (ii) in Sufu−/− mouse embryonic fibroblasts (MEF), and (iii) in NIH 3T3 cells overexpressing GLI2 (FIG. 3d-3f).
# Sufu^−/− MEFs (conditional deletion of exons 4-8) were kindly provided by Pao-Tien Chang (UCSF). SAG (S7779), GDC-0449 (Vismodegib, S1082) and CX-4945 (Silmitasertib, S2248) was purchased from SelleckChem.com. TBB was purchased from EMD (218697). Shh-N conditional medium was made using a HEK 293 cell line that stably secretes ShhN as previously described. Myc-GL12-DN (17649, pCS2-MT-GLI2-deltaN) plasmid was purchased from Addgene (Cambridge, Mass., USA). […]
# NIH3T3s or SUFU−/− MEFs were plated in 6 well plates at 400,000 cells/well in 10% FBS media constituted of DMEM (Invitrogen11960-069) supplemented with 10% FBS (Hyclone Labs SH30070.02), pen/strep (Life Technologies 15140-122), sodium pyruvate (Invitrogen 11360-070) and glutamax (Invitrogen 35050-061). […] RNA was quantified on a nanodrop spectrophotometer (nanoddrop technologies ND-2000C). Transcript quantification was performed using a TaqMan RNA-to-Ct 1-Step Kit (Life technologies, 4392656) and the Applied Biosystems 7500 RT-PCR system as per the manufacturer's instructions. […]
# Gli2 = Gli2 stability; type: cell-based, mouse
# Procedure: as §1
# Gli2ΔN cells were lysed with RIPA buffer (sc-24948, Santa Cruz Biotechnology) supplemented with Halt Protease & Phosphatase Inhibitor (Thermo #1861218) for 30 min on ice and lysates were cleared by centrifugation at 13000 rpm, 15 min at 4° C. Supernatants were incubated with 6× Lamelli sample buffer (10570021-1, BioWorld) at 95° C. for 5 min. The samples were then separated with a 7% SDS-PAGE gel and immunoblotted with anti-Gli2 (AF3635-SP, R&D) and anti-β-tubulin (ab6046, Abcam).
# [3] = test system: MB cell lines (MB55, MB21, MB53); assay: Cell viability of MB cell lines (CellTiter-Glo); type: cell-based, mouse; conditions: multiple MB cell lines derived from Ptch1+/− and Ptch1+/−; Trp53−/− mice
# Procedure: Ptch+/−MB cell lines MB55 and MB21 were kindly gifted from Dr. Rosalind Segal (Dana Farber Cancer Institute, Harvard Medical School) and Ptch^+/−; p53^−/− MB53 cells were kindly gifted from Charles Rudin (Memorial Sloan-Kettering Cancer Center). All cell lines were validated for high Gli activity. Cell viability was assessed using CellTiter-Glo (G7573, Promega, WI, USA) according to the manufacturers instructions. Cells were plated at 10000 cells/well in 96-well plates, treated with drugs as indicated and data was collected on a TECAN Infinite 200 plate reader.
smiles,measurement,setting,value
"Brc1c(Br)c(Br)c2[nH]nnc2c1Br [TBB, 4,5,6,7-tetrabromo-2H-benzotriazole]",GNP-dependent foliary width,[1],decrease
same,apoptosis,[1],no significant change
same,cerebellar size,[1],decrease
same,foliary length,[1],no significant change
same,number of ATOH-1 positive proliferating GNPs,[1],decrease
same,rate of differentiation,[1],no significant change
same,Gli1 mRNA / Gli transcript levels,[2],substantially decreased; also recorded: dose dependent loss of Gli1 expression
same,GLI2 protein driven off the CMV promoter-expression vector,Gli2; Gli2ΔN cells after TBB treatment,no decrease
same,"endogenous, full length Gli2 mRNA levels",Gli2; after TBB treatment,decreases
same,cell viability,[3],decreased; also recorded: dose dependent tumoricidal effects
